Measurements from patent publication US20110184147A1, “ENZYME SUBSTRATE FOR LABELING OF PROTEIN” (priority 2008, published 2011).

Columns and labels:
MTG [1] = target: T1, MTG (Streptomyces mobaraensis, UniProt P81453); experiment: MTG-catalyzed binding reaction of fluorescent substrate with β-casein; assay type: biochemical, microbial; settings: substrate 1 mM, β-casein 0.5 mg/ml, MTG 1 U/ml, phosphate buffer pH 7, overnight 27° C.
T1 construct: purchased AJINOMOTO (supplied as a gift)
Description: To perform a binding reaction, FITC-β-Ala-QG, β-casein and GTG were added to 50 mM HEPES (5 mM NaCl, 10 mM CaCl2, pH 7.4) to give respective final concentrations of 1 mM, 0.5 mg/ml and 0.2 U/ml and the resulting mixture was left to stand overnight at 27° C. Two comparative samples were prepared; one was a GTG-free sample and the other was prepared by performing an MTG-catalyzed reaction. For the MTG-catalyzed binding reaction, FITC-β-Ala-QG, β-casein and MTG were added to a 10 mM phosphate buffer (pH 7) to give respective final concentrations of 1 mM, 0.5 mg/ml and 1 U/ml and the resulting mixture was left to stand overnight at 27° C. Tracing on the sample after the reaction was performed by the same procedure as in Experiment 2-2.

BSA (antigen) = experiment: Antigen recognizing ability by ELISA (rabbit-derived anti-BSA IgG antibody); assay type: binding; settings: rabbit-derived anti-BSA IgG antibody (polyclonal) modified by MTG
Description: A study was made on samples that were prepared by introducing a fluorescent substrate (FITC-ε-Acp-QG or FITC-β-Ala-QG) into a rabbit-derived anti-BSA IgG antibody (polyclonal) under the same conditions as in Experiment 2-2.
ELISA was performed by the following procedure (FIG. 3-5). • 1) To a Black Plate, 5 mg/ml of BSA (antigen) was added in an amount of 150 µl/well and left to stand overnight at 37° C. • 2) The product of 1) was washed with PBST five times. • 3) Modified anti-BSA IgG antibodies were added in an amount of 60 µl/well and left to stand at room temperature for 5 hours. • 4) The product of 3) was washed with PBST five times. • 5) Examination was made with a fluorescent imager. • 6) A […] sample of AP-labeled anti-rabbit IgG IgG antibodies were added in an amount of 150 µl/well and left to stand at 37° C. for 3 hours. • 7) The product of 6) was washed with TBST five times. • 8) The substrate was added and 10 minutes later, fluorescence derived from the enzymatic reaction was examined with a fluorescent imager.

MTG [2] = target: T1, MTG; experiment: MTG-catalyzed introduction of fluorescent substrate into anti-PSA IgG antibody (optimization, substrate comparison); assay type: biochemical, microbial
Description: To a 50 mM buffer whose pH was varied over the range from 5 to 9 (pH 5 acetate buffer; pH 6-7 phosphate buffer; pH 8 Tris-HCl; pH 9 boric acid buffer), FITC-β-Ala-QG, an anti-PSA (prostate specific antigen) IgG antibody (mouse-derived, monoclonal) and MTG were added to give respective final concentrations of 0.1 mM, 0.5 mg/ml, and 1 U/ml. These ingredients were well stirred and left to stand at 4° C. for reaction. After 1-hr or 6-hr reaction, the sample was mixed with a sample buffer and heated at 95° C. for 15 minutes to stop the reaction. Thereafter, SDS-polyacrylamide gel electrophoresis (SDS-PAGE) was applied. The gel from SDS-PAGE was stained with Coomassie Brilliant Blue (CBB) and observed with a fluorescent imager.
(§1) To 50 mM Tris-HCl (pH 8), FITC-β-Ala-QG, an anti-PSA IgG antibody and MTG were added to give respective final concentrations of 1 mM, 0.5 mg/ml, and 0.001-1 U/ml. These ingredients were well stirred and left to stand at 4° C. for reaction. The reaction was stopped and evaluation was made by the same procedures as in Experiment 2-1.
as §1, with “of 0.001-1” for “of 1”, “and 1” for “and 0.001-1”
To PBS, FITC-β-Ala-QG, an anti-PSA IgG antibody (mouse-derived, monoclonal) and MTG were added to give respective final concentrations of 1 mM, 0.5 mg/ml, and 1 U/ml. These ingredients were well stirred and left to stand at 4° C. or 40° C. for reaction. After 3-, 6- and 18-hr reactions, the reaction was stopped and evaluation was made by the same procedures as in Experiment 2-1.
To PBS, FITC-β-Ala-QG, an anti-PSA IgG antibody (mouse-derived, monoclonal) and MTG were added to give respective final concentrations of 1 mM, 0.5 mg/ml, and 1 U/ml. These ingredients were well stirred and left to stand for 18 hours at 4° C. for reaction. For the purpose of comparison, two additional samples were prepared, one being free of FITC-β-Ala-QG-biotin and the other having been reacted with a biotin-free fluorescent substrate (FITC-β-Ala-QG). After the reaction, the samples were purified by ultrafiltration (product of MILLIPORE Corp.; 100 kDa cut).

T1 sequence (P81453 77-407): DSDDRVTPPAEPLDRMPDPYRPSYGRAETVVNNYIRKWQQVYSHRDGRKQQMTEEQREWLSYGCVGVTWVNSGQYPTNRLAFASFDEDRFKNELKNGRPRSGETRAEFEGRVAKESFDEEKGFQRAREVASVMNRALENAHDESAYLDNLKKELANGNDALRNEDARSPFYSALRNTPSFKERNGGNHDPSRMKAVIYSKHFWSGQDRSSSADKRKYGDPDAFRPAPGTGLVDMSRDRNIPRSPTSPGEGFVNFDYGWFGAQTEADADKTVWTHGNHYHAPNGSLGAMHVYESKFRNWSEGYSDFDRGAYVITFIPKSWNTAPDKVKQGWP

Compound: NC(=O)CCC(NC(=O)CCNC(=S)Nc1ccc(-c2c3ccc(=O)cc-3oc3cc(O)ccc23)c(C(=O)O)c1)C(=O)NCC(=O)O (stereo not drawn) [FITC-β-Ala-QG]
- Fluorescence intensity of MTG lane compared with GTG lane (MTG [1]): higher fluorescence intensity
- Antigen recognizing ability of modified antibody (BSA (antigen)): maintained its antigen recognizing ability
- pH of highly efficient introduction into antibody (MTG [2]; anti-PSA IgG antibody, substrate 0.1 mM, MTG 1 U/ml, 4° C., 1 and 6 hours): ~7
- Substrate concentration dependency of antibody labeling (MTG [2]; anti-PSA IgG antibody, substrate 0.001-1 mM, MTG 1 U/ml, pH 8, 4° C.): proceeded with the increasing substrate concentration
- MTG concentration at which a highly efficient reaction proceeded (MTG [2]; anti-PSA IgG antibody, substrate 1 mM, pH 8, 4° C., MTG 0.001-1 U/ml): 1 U
- Introduction into the antibody (MTG [2]; before the addition of the resin (lanes 1-3)): verified the introduction
